Measured values published in US12296053B2, “Nanomaterials comprising triols” (Beam Therapeutics Inc., priority 2022, dated 2025).

Legend:
[1] = Encapsulation efficiency of LNP preparations (Ribogreen assay; Qubit, unlysed and lysed LNPs); assay type: physicochemical; conditions: LNP preparation with the ionizable lipid, ABE mRNA:sgRNA 1:1, except 7-1, 7-2, 7-6, 7-10 (unlysed and lysed LNPs, Qubit)
How it was run: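 LNPs of ionizable lipid, cholesterol, PEG2000-DMG and DSPC (47.5:40:2.5:10 mol%) were made by microfluidic mixing with base-editor mRNA plus sgRNA (1:1 mass) in 50 mM citrate, pH 4.0, at total lipid:NA molar ratio 6 to 12. Encapsulation was read by Ribogreen, or for lipids 7-1, 7-2, 7-6 and 7-10 by Qubit on unlysed versus lysed LNPs.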

[2] = LNP hydrodynamic diameter and polydispersity index by dynamic light scattering (DLS); assay type: physicochemical; conditions: for Diameter (nm): hydrodynamic diameter of the LNP preparation with the ionizable lipid; for PDI: polydispersity index of the LNP preparation with the ionizable lipid
How it was run: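 LNPs were mixed at a 3:1 aqueous:organic ratio, diluted in TBS and dialysed against TBS at 4° C. for 8 to 24 hours (20 kDa). Hydrodynamic diameter and PDI were then measured by high-throughput DLS after dilution in 1×PBS.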

ALAS1 target site = assay: Base editing in liver by LNP-delivered ABE mRNA and sgRNA, targeted deep sequencing; assay type: in vivo; conditions: LNP with the ionizable lipid, ABE mRNA + sgRNA targeting ALAS1 1:1; tail vein injection, Balb/c mice; 0.05 mg/kg; tissues four to six days post-dose
Method: Lipid nanoparticle components were dissolved in 100% ethanol at specified lipid component molar ratios. mRNA encoding an adenine base editor and a chemically-modified sgRNA was dissolved at a mass ratio of 1:1 in 50 mM citrate, pH 4.0, resulting in a concentration of NA cargo of approximately 0.1 mg/mL.
LNP preparations were formulated with molar ratios of 47.5% Ionizable Lipid: 40% Cholesterol: 2.5% PEG2000-DMG: 10% DSPC total lipid to NA molar ratio of 6 to 12.
LNP preparations were formed by microfluidic mixing of the lipid and NA solutions using Precision Nanosystems NanoAssemblr Ignite series Instruments, according to the manufacturer's protocol.
A 3:1 ratio of aqueous to organic solvent was maintained during mixing using differential flow rates. After mixing, LNP preparations were collected and diluted in TBS (approximately 7:1 v/v), and further buffer exchange was conducted using dialysis in TBS at 4° C. for 8 to 24 hours against a 20 kDa filter. After this initial dialysis, each individual LNP preparation was characterized via dynamic light scattering (DLS) to measure size and polydispersity. pKa of a subpopulation of LNP preparations was measured via TNS assay.
Male Balb/C mice aged approximately 8-12 weeks were used in the experiments described herein. […]
Age-matched mice were also used to administer vehicle (1×TBS) via tail vein injection as a control. Four to six days post-dose, tissues including liver, spleen, and bone marrow were collected. Base editing was determined by performing targeted deep sequencing analysis at the ALAS1 target site using extracted genomic DNA. Genomic DNA was isolated and fragmented and adapter-ligated using the Nextera DNA Flex Library Prep Kit (Illumina) using the 96-well plate Nextera indexing primers (Illumina), according to the manufacturer's instructions. Library size and concentration was confirmed by Fragment Analyzer (Agilent) and analyzed for whole genome sequencing using an Illumina HiSeq.

Encapsulation Efficiency (%) [1] [%] | Diameter (nm) [2] [nm] | PDI [2] | SMILES | % Editing in Liver (0.05 mpk) (ALAS1 target site) [%]
97.6 | 59.40 | 0.09 | CC/C=C\CCCCOC(CCC(=O)OCC(COC(=O)CCCCCC(=O)OCCC(CCCCCC)CCCCCC)COC(=O)CCC(CCCCCC)OC(=O)NCCN1CCCC1)OCCCC/C=C\CC (stereo not shown) [Compound 7-14, 1-(3-((4,4-bis(((Z)-oct-5-en-1-yl)oxy)butanoyl)oxy)-2-(((4-(((2-(pyrrolidin-1-yl)ethyl)carbamoyl)oxy)decanoyl)oxy)methyl)propyl) 7-(3-hexylnonyl) heptanedioate] | 0.1
96.9 | 61.25 | 0.06 | CC/C=C\CCCCOC(CCC(=O)OCC(COC(=O)CCCCCC(=O)OCCC(CCCCC)CCCCC)COC(=O)CCC(CCCCC)OC(=O)NCCN1CCCC1)OCCCC/C=C\CC (stereo not shown) [Compound 7-27, 1-(3-((4,4-bis(((Z)-oct-5-en-1-yl)oxy)butanoyl)oxy)-2-(((4-(((2-(pyrrolidin-1-yl)ethyl)carbamoyl)oxy)nonanoyl)oxy)methyl)propyl) 7-(3-pentyloctyl) heptanedioate] | 5.3
96.4 | 69.26 | 0.11 | CC/C=C\CCCCOC(CCC(=O)OCC(COC(=O)CCCCCC(=O)OCCC(CCCC)CCCC)COC(=O)CCC(CCCCCC)OC(=O)NCCN1CCCC1)OCCCC/C=C\CC (stereo not shown) [Compound 7-12, 1-(3-((4,4-bis(((Z)-oct-5-en-1-yl)oxy)butanoyl)oxy)-2-(((4-(((2-(pyrrolidin-1-yl)ethyl)carbamoyl)oxy)decanoyl)oxy)methyl)propyl) 7-(3-butylheptyl) heptanedioate] | 1.7
96.1 | 53.30 | 0.10 | CC/C=C\CCCCOC(CCC(=O)OCC(COC(=O)CCCCCC(=O)OCC(CCCC)CCCCCC)COC(=O)CCC(CCCCCC)OC(=O)NCCN1CCCC1)OCCCC/C=C\CC (stereo not shown) [Compound 7-32, 1-(3-((4,4-bis(((Z)-oct-5-en-1-yl)oxy)butanoyl)oxy)-2-(((4-(((2-(pyrrolidin-1-yl)ethyl)carbamoyl)oxy)decanoyl)oxy)methyl)propyl) 7-(2-butyloctyl) heptanedioate] | 0.6

The remaining lines, values behind:

SMILES | Encapsulation Efficiency (%) [1] [%] | Diameter (nm) [2] [nm] | PDI [2] | % Editing in Liver (0.05 mpk) (ALAS1 target site) [%]
CC/C=C\CCCCOC(CCC(=O)OCC(COC(=O)CCCCCCOC(=O)C(CCCC)CCCCCC)COC(=O)CCC(CCCCCCC)OC(=O)NCCN1CCCC1)OCCCC/C=C\CC (stereo not shown) [Compound 7-50, 3-((4,4-bis(((Z)-oct-5-en-1-yl)oxy)butanoyl)oxy)-2-(((7-((2-butyloctanoyl)oxy)heptanoyl)oxy)methyl)propyl 4-(((2-(pyrrolidin-1-yl)ethyl)carbamoyl)oxy)undecanoate] | 96.6 | 53.45 | 0.09 | 4.0
CC/C=C\CCCCOC(CCC(=O)OCC(COC(=O)CCCCCC(=O)OCCC(CCCCC)CCCCC)COC(=O)CCC(CCC)OC(=O)NCCN1CCCC1)OCCCC/C=C\CC (stereo not shown) [Compound 7-25, 1-(3-((4,4-bis(((Z)-oct-5-en-1-yl)oxy)butanoyl)oxy)-2-(((4-(((2-(pyrrolidin-1-yl)ethyl)carbamoyl)oxy)heptanoyl)oxy)methyl)propyl) 7-(3-pentyloctyl) heptanedioate] | 97.8 | 78.75 | 0.11 | 0.9
CC/C=C\CCCCOC(CCC(=O)OCC(COC(=O)CCCCCCOC(=O)C(CCCC)CCCCCC)COC(=O)CCC(CCCCC)OC(=O)NCCN1CCCC1)OCCCC/C=C\CC (stereo not shown) [Compound 7-23, 3-((4,4-bis(((Z)-oct-5-en-1-yl)oxy)butanoyl)oxy)-2-(((7-((2-butyloctanoyl)oxy)heptanoyl)oxy)methyl)propyl 4-(((2-(pyrrolidin-1-yl)ethyl)carbamoyl)oxy)nonanoate] | 98.7 | 57.90 | 0.12 | 1.0
CC/C=C\CCCCOC(CCC(=O)OCC(COC(=O)CCCCCCCOC(=O)C(CCCC)CCCCCC)COC(=O)OCC(CCCCCC)OC(=O)NCCN1CCCC1)OCCCC/C=C\CC (stereo not shown) [Compound 7-8, 12-(((4,4-bis(((Z)-oct-5-en-1-yl)oxy)butanoyl)oxy)methyl)-6-hexyl-4,9,15-trioxo-1-(pyrrolidin-1-yl)-5,8,10,14-tetraoxa-3-azadocosan-22-yl 2-butyloctanoate] | 95.5 | 62.8 | 0.07 | 14.8
CCCCCCCCOC(CCC(=O)OCC(COC(=O)CCCCC(=O)OCCC(CCCCCC)CCCCCC)COC(=O)CCC(CCCCCC)OC(=O)NCCN1CCCC1)OCCCCCCCC (stereo not shown) [Compound 7-17, 3-((4,4-bis(octyloxy)butanoyl)oxy)-2-(((4-(((2-(pyrrolidin-1-yl)ethyl)carbamoyl)oxy)decanoyl)oxy)methyl)propyl (3-hexylnonyl) adipate] | 98.5 | 57.11 | 0.09 | 1.0
CC/C=C\CCCCOC(CCC(=O)OCC(COC(=O)CCCCCC(=O)OCCC(CCCCC)CCCCC)COC(=O)CCC(C)OC(=O)NCCN1CCCC1)OCCCC/C=C\CC (stereo not shown) [Compound 7-30, 1-(3-((4,4-bis(((Z)-oct-5-en-1-yl)oxy)butanoyl)oxy)-2-(((4-(((2-(pyrrolidin-1-yl)ethyl)carbamoyl)oxy)pentanoyl)oxy)methyl)propyl) 7-(3-pentyloctyl) heptanedioate] | 98.3 | 71.40 | 0.10 | 0.8
CCCCCCCCOC(CCC(=O)OCC(COC(=O)CCCCCC(=O)OCCC(CCCCC)CCCCC)COC(=O)CCC(CCCCCC)OC(=O)NCCN1CCCC1)OCCCCCCCC (stereo not shown) [Compound 7-15, 1-(3-((4,4-bis(octyloxy)butanoyl)oxy)-2-(((4-(((2-(pyrrolidin-1-yl)ethyl)carbamoyl)oxy)decanoyl)oxy)methyl)propyl) 7-(3-pentyloctyl) heptanedioate] | 97.9 | 58.45 | 0.08 | 6.8
CC/C=C\CCCCOC(CCC(=O)OCC(COC(=O)CCCCCC(=O)OC(CCCCCCC)CCCCCCC)COC(=O)CCC(CCCCC)OC(=O)NCCN1CCCC1)OCCCC/C=C\CC (stereo not shown) [Compound 7-35, 1-(3-((4,4-bis(((Z)-oct-5-en-1-yl)oxy)butanoyl)oxy)-2-(((4-(((2-(pyrrolidin-1-yl)ethyl)carbamoyl)oxy)nonanoyl)oxy)methyl)propyl) 7-(pentadecan-8-yl) heptanedioate] | 96.2 | 64.25 | 0.12 | 3.1
CC/C=C\CCCCOC(CCC(=O)OCC(COC(=O)CCCCCCOC(=O)C(CCCC)CCCCCC)COC(=O)CCC(CCCCCC)OC(=O)CCCN1CCCC1)OCCCC/C=C\CC (stereo not shown) [Compound 7-49, 3-((4,4-bis(((Z)-oct-5-en-1-yl)oxy)butanoyl)oxy)-2-(((7-((2-butyloctanoyl)oxy)heptanoyl)oxy)methyl)propyl 4-((4-(pyrrolidin-1-yl)butanoyl)oxy)decanoate] | 96.3 | 57 | 0.06 | 6.6
